Read-outs that look alike come from different tables or passages of the source.
What was measured:
[1] = molecular target: T1, human sex Hormone Binding Globulin (SHBG) (Homo sapiens, UniProt P04278); experiment: Competitive steroid-binding assay for human SHBG; conditions: for relative binding affinity for human SHBG: rising in the order ethinylestradiol, 17β-estradiol, testosterone, 5α-dihydrotestosterone
T1 construct: Human SHBG was purified from transgenic mouse serum; made in house; host or cells: transgenic mouse (serum)
T1 sequence (P04278 30-402): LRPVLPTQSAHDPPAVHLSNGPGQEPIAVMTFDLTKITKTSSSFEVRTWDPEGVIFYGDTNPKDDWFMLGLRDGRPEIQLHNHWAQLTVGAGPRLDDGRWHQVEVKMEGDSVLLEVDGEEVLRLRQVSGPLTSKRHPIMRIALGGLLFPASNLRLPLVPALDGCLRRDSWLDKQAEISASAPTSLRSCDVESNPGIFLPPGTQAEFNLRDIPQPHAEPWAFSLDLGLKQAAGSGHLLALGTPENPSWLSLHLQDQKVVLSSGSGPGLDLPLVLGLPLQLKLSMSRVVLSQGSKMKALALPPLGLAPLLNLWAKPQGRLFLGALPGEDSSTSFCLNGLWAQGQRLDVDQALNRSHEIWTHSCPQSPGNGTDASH
Protocol: Human SHBG was treated for 30 min at room temperature with a dextran-coated charcoal (DCC) suspension in phosphate buffered saline (PBS) to remove any steroid ligand. After centrifugation (2,000×g for 10 min) to sediment the DCC, the supernatant containing the human SHBG was diluted in PBS to a concentration of 1 nM based on its steroid binding capacity.
The average amounts of [^3H]labeled ligands bound to SHBG at each concentration of competitor (B) were expressed as a percentage of the average amounts of [^3H]labeled ligands bound to SHBG in the absence of competitor (B0), and were. plotted against the concentration of competitor in each assay tube.

[2] = tested on: ovariectomized adult rats (vaginal epithelial cornification); experiment: Vaginal cornification bioassay in ovariectomized rats, subcutaneous dosing; assay type: in vivo, rat
Protocol: Adult intact female CD rats were ovariectomized to induce estrogen deficiency. […] Castrate vaginal smears are indicative that complete ovariectomy was achieved. Treatment commenced following completion of the 7 days of smearing (day 0=first day of dosing). Animals were dosed, once daily for 7 consecutive days. Daily vaginal lavages continued to be obtained for 7 days after dosing was initiated in order to detect vaginal cornification, as an indication of an estrogenic response. A drop of vaginal washings was placed on a glass slide and examined by light microscopy to detect the presence or absence of cornified epithelial cells. Vaginal lavages were obtained prior to dosing on days 0-6 and prior to necropsy on day 7. The vaginal cornification bioassay was performed in order to determine the estrogenic profile of E4 when given subcutaneously (sc) to ovariectomized adult rats. E2 was used as a positive control. […] The occurrence of vaginal cornification, indicative of an estrogenic response, is an “all or none” response. Data are, therefore, expressed as the number of rats showing a vaginal estrogenic response over the number of rats (ratio) treated.

[3] = tested on: four-day cyclic rats (ovulation); experiment: Antiovulatory bioassay in four-day cyclic rats, subcutaneous dosing; assay type: in vivo, rat; conditions: for inhibition of ovulation: EE 1.0-100 μg/kg, E2 and E4 0.1-3.0 mg/kg; for complete ovulation inhibition: twice daily sc, higher dosages
Protocol: Vaginal smears from female rats are obtained daily for two weeks to select four-day cycling rats. Only four-day cyclic rats are to be used for the antiovulatory bioassay. […] One day after the final dose (day 5), rats are euthanized by CO2 asphyxiation at 1 pm, and the number of ova per oviduct is determined. Group means are subsequently calculated for the number of ova per ovulated rat (both oviducts). The ratio of rats ovulating for each treatment group is compared to the ratio for the vehicle-treated rats.

[4] = tested on: human breast cancer cells (MCF-7); conditions: MCF-7, long term tissue culture; cited from earlier work
[5] = Elimination half-life after single subcutaneous dose, plasma by HPLC-MS/MS; assay type: in vivo, rat; conditions: single sc dose, female Sprague Dawley rats, sampling 0.5-24 hours
Protocol: To determine the elimination half-life of estetrol (E4) after subcutaneous administration (sc), single dose studies were performed in female Sprague Dawley rats followed by frequent blood sampling over a 24 hours interval.
Female Sprague Dawley rats were equipped with a permanent silatic heart catheter, as described by Kuipers et al. (1985,Gastroenterology, 88, 403-411). Rats were allowed to recover from surgery for 5 days and were than administered 0.05, 0.5,or 5 mg/kg E4 in 0.5 ml arachidis oil. E4 was injected in the neck area using a 1 ml syringe and 20 g needle. Blood samples were subsequently collected via the heart catheter in heparinized tubes at 0.5, 1, 2, 4, 8 and 24 hours. Erythrocytes were removed by centrifugation at 5000×g for 10 minutes at 4° C. and blood plasma was stored at −20° C. […] With each sample batch, a calibration curve with 6 calibrators was recorded. The calibration curve was calculated using linear regression (correlation coefficient>0.98), which permitted quantitation of plasma concentrations. […]
Plasma E4 concentration data were analysed with “WinNonLin, edition 3.1” and involved pharmacokinetic parameters for Cmax, AUC0-24 and half-life.

immature rat uterus = conditions: subcutaneous, Holinka et al., cited from earlier work
uterus = conditions: continuous administration from a subcutaneous depot; Martucci et al., 1977; cited from earlier work
[6] = tritium labeled, intravenous, two adult women; cited from earlier work

In the case of `C[C@]12CCC(=O)C[C@@H]1CC[C@@H]1[C@@H]2CC[C@]2(C)[C@@H](O)CC[C@@H]12` [5α-dihydrotestosterone, reference compound], the “relative binding affinity for human SHBG” value [1] is reported as “show an increased relative binding affinity for human SHBG”.
With `C[C@]12CC[C@@H]3c4ccc(O)cc4CC[C@H]3[C@@H]1CC[C@@H]2O` [17β-estradiol] the “Number of Rats Exhibiting Estrogenic Response/Number of Rats Treated” value ([2]; 0.05 mg/kg/day sc, Day 0) was 0/8, the “Number of Rats Exhibiting Estrogenic Response/Number of Rats Treated” value ([2]; 0.05 mg/kg/day sc, Day 1) was 0/8 and the “Number of Rats Exhibiting Estrogenic Response/Number of Rats Treated” value ([2]; 0.05 mg/kg/day sc, Day 2) was 8/8. For the same compound, the “Number of Rats Exhibiting Estrogenic Response/Number of Rats Treated” value ([2]; 0.05 mg/kg/day sc, Day 3) was 8/8, the “Number of Rats Exhibiting Estrogenic Response/Number of Rats Treated” value ([2]; 0.05 mg/kg/day sc, Day 4) was 8/8 and the “Number of Rats Exhibiting Estrogenic Response/Number of Rats Treated” value ([2]; 0.05 mg/kg/day sc, Day 5) was 8/8. For the same compound, the “Number of Rats Exhibiting Estrogenic Response/Number of Rats Treated” value ([2]; 0.05 mg/kg/day sc, Day 6) was 8/8, the “Number of Rats Exhibiting Estrogenic Response/Number of Rats Treated” value ([2]; 0.05 mg/kg/day sc, Day 7) was 8/8 and the inhibition of ovulation ([3]; twice daily sc for 4 days) was “dose-dependently inhibits ovulation”. For the same compound, the complete ovulation inhibition [3] was “complete ovulation inhibition is achieved”.
In the case of `C[C@]12CC[C@@H]3c4ccc(O)cc4CC[C@H]3[C@@H]1[C@@H](O)[C@@H](O)[C@@H]2O` [estetrol, 1,3,5 (10)-estratrien-3, 15α,16α,17β-tetrol], the “Number of Rats Exhibiting Estrogenic Response/Number of Rats Treated” value ([2]; 1.0 mg/kg/day sc, Day 7, listed as E4) is reported as “all rats showed a vaginal estrogenic response”, the “Number of Rats Exhibiting Estrogenic Response/Number of Rats Treated” value ([2]; 3.0 mg/kg/day sc, Day 7, listed as E4) is reported as “all rats showed a vaginal estrogenic response” and the “onset of vaginal epithelial cornification” value ([2]; sc 0.1, 0.3, 1.0 and 3.0 mg/kg/day) is reported as “dose-dependent”. For the same compound, the “day of treatment on which vaginal epithelial cornification started” value ([2]; sc 0.1, 0.3, 1.0 and 3.0 mg/kg/day, same day as observed for E2) was 2 days, the “agonistic potency in in vitro cell proliferation, of the magnitude observed for 17β-estradiol” value [4] was 2% and the “binding to human SHBG (competitive displacement)” value ([1]; [3H]DHT as labeled ligand) was “does not bind at all”. The “binding to human SHBG (competitive displacement)” value ([1]; [3H]estradiol as labeled ligand) was “does not bind at all”, the “binding to SHBG compared with the other estrogens tested” value ([1]; compared with ethinylestradiol and 17β-estradiol) was “negligible” and the “antiovulatory activity compared with E2” value ([3]; twice daily sc for 4 days) was “equal potency or even more potency in inhibiting ovulation than E2”. The inhibition of ovulation ([3]; twice daily sc for 4 days) was “dose-dependently inhibits ovulation”, the complete ovulation inhibition [3] was “complete ovulation inhibition is achieved” and the “plasma levels of unconjugated E4 over a 24 hour interval” value [5] was “detection of bioactive levels of unconjugated E4 at all time points”. For the same compound, the uterotrophic activity (immature rat uterus; 1979) was “very weak uterotrophic activity”, the uterotrophic activity (immature rat uterus; 1980) was “very weak uterotrophic activity” and the uterotrophic activity (uterus) was “very weak uterotrophic activity”. The metabolism [6] was “virtually no metabolism except for conjugation took place”.
In the case of `C[C@]12CC[C@H]3[C@@H](CCC4=CC(=O)CC[C@@]43C)[C@@H]1CC[C@@H]2O` [testosterone, reference compound], the “relative binding affinity for human SHBG” value [1] is reported as “show an increased relative binding affinity for human SHBG”.

From patent US7871995B2, “Drug delivery system comprising a tetrahydroxylated estrogen for use in hormonal contraception” (Pantarhei Bioscience B.V., priority 2001, dated 2011)
